Experimental data as given in publication PMC3500388 (Organic & biomolecular chemistry, 2012).
Where “and” joins values, the source holds several entries; their conditions need not be identical. Equal values may be shown once.

What was measured:
full-length human ERβ = full-length human ERβ (Homo sapiens, UniProt Q92731); assay: Luciferase reporter gene assay in HepG2 cells, ERβ, antagonist mode; type: cell-based
full-length human ERα [1] = molecular target: T1, full-length human ERα (Homo sapiens, UniProt P03372); assay: Luciferase reporter gene assay in HepG2 cells, ERα, agonist mode; conditions: for Agonist mode ERα Eff (%E2) / ERα agonist activity / intrinsic activity, in words: HepG2 cells; for Agonist mode ERα Eff (%E2): mean ± s.e.m. as percentage of 10^−7 M E2
T1 sequence (P03372 1-595): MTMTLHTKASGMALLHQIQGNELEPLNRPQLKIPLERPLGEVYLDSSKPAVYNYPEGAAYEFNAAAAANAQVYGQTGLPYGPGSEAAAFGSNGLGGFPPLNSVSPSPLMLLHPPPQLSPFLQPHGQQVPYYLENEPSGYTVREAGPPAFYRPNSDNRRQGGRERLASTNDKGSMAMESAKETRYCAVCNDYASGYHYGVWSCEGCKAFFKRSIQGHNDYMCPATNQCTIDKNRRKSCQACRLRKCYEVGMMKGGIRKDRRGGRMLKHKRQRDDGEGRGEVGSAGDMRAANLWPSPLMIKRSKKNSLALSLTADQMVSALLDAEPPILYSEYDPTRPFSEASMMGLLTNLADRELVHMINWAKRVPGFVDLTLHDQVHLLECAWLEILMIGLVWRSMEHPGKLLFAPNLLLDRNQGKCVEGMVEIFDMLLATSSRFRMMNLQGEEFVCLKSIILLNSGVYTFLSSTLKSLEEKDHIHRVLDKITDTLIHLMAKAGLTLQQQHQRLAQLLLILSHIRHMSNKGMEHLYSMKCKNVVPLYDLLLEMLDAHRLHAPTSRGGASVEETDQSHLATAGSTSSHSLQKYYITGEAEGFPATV

full-length human ERα [2] = molecular target: T1, full-length human ERα; assay: Luciferase reporter gene assay in HepG2 cells, ERα, antagonist mode; type: cell-based
[3] = molecular target: T2, purified full-length human ERα (Homo sapiens, UniProt P03372); assay: Competitive radiometric binding assay, ERα; conditions: estradiol = 100%; 2 nM [3H]estradiol tracer, 18–24 h at 0 °C
T2 sequence (P03372 1-595): T1 sequence (P03372 1-595)

[4] = molecular target: purified full-length human ERβ (Homo sapiens, UniProt Q92731); assay: Competitive radiometric binding assay, ERβ; conditions: estradiol = 100%; 2 nM [3H]estradiol tracer, 18–24 h at 0 °C
purified full-length human ERβ, sequence (Q92731 whole entry): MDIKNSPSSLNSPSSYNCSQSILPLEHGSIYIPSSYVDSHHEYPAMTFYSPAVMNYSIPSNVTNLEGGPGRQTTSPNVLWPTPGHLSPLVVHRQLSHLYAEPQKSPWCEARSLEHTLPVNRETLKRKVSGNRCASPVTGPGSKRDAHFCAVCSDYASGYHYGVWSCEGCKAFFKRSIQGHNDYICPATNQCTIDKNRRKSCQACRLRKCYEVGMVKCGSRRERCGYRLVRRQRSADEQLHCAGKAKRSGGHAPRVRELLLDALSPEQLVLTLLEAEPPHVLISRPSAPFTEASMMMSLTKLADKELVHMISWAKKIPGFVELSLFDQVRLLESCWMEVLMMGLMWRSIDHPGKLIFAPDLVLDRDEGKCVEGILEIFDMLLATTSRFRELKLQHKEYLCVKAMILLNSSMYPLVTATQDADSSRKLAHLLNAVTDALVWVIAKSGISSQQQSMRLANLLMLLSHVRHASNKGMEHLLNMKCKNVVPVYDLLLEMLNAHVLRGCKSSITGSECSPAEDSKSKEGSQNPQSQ

HEC-1 cells = conditions: cited from earlier work

full-length human ERβ, sequence (Q92731 whole entry): as above

In the case of `CC/C(=C(\c1ccc(O)cc1)c1ccc(OCCN(C)C)cc1)c1ccccc1` [4-OH TAM, 4-OH tamoxifen, reference compound], the “Antagonist mode ERβ Eff (%E2)” value (full-length human ERβ) is reported as −20 ± 2 %E2.
For `O=S(=O)(Nc1ccccc1)C1CC2OC1C(c1ccc(O)cc1)=C2c1ccc(O)cc1` (stereo not shown) [Compound 11a, 5,6-Bis(4-hydroxyphenyl)-N-phenyl-7-oxabicyclo[2.2.1]hept-5-ene-2-sulfonamide], the EC50 (full-length human ERα [1]) was 100 nM and the “Agonist mode ERα Eff (%E2)” value (full-length human ERα [1]) was 78 ± 1 %E2.
With `O=S(=O)(Nc1ccccc1Cl)C1CC2OC1C(c1ccc(O)cc1)=C2c1ccc(O)cc1` (stereo not shown) [Compound 11c, N-(2-Chlorophenyl)-5,6-bis(4-hydroxyphenyl)-7-oxabicyclo-[2.2.1]hept-5-ene-2-sulfonamide] the EC50 (full-length human ERα [1]) was 200 nM and the “Agonist mode ERα Eff (%E2)” value (full-length human ERα [1]) was 81 ± 4 %E2.
With `O=S(=O)(Nc1ccc(Cl)cc1)C1CC2OC1C(c1ccc(O)cc1)=C2c1ccc(O)cc1` (stereo not shown) [Compound 11d, N-(4-Chlorophenyl)-5,6-bis(4-hydroxyphenyl)-7-oxabicyclo-[2.2.1]hept-5-ene-2-sulfonamide] the “Agonist mode ERα Eff (%E2)” value (full-length human ERα [1]) was 42 ± 3 %E2.
With `CN(c1ccccc1)S(=O)(=O)C1CC2OC1C(c1ccc(O)cc1)=C2c1ccc(O)cc1` (stereo not shown) [Compound 11e, 5,6-Bis(4-hydroxyphenyl)-N-methyl-N-phenyl-7-oxabicyclo-[2.2.1]hept-5-ene-2-sulfonamide] the IC50 (full-length human ERα [2]; read-out: Antagonist mode ERα IC50, in the presence of 10^−8 M E2) was 740 nM, the IC50 (full-length human ERβ; read-out: Antagonist mode ERβ IC50, HepG2 cells, in the presence of 10^−8 M E2) was 10 nM and the “Agonist mode ERα Eff (%E2)” value (full-length human ERα [1]) was 31 ± 3 %E2.
With `CN(c1ccccc1Cl)S(=O)(=O)C1CC2OC1C(c1ccc(O)cc1)=C2c1ccc(O)cc1` (stereo not shown) [Compound 11g, N-(2-Chlorophenyl)-5,6-bis(4-hydroxyphenyl)-N-methyl-7-oxabicyclo[2.2.1]hept-5-ene-2-sulfonamide] the “relative binding affinity (RBA) for ERα” value [3] was 7.17% and 7.2%, the “relative binding affinity (RBA) for ERβ” value [4] was 1.59% and 1.6% and the EC50 (full-length human ERα [1]) was 8 nM. For the same molecule, the “Agonist mode ERα Eff (%E2)” value (full-length human ERα [1]) was 33 ± 1 %E2.
For `CCN(c1ccccc1)S(=O)(=O)C1CC2OC1C(c1ccc(O)cc1)=C2c1ccc(O)cc1` (stereo not shown) [Compound 11i, N-Ethyl-5,6-bis(4-hydroxyphenyl)-N-phenyl-7-oxabicyclo-[2.2.1]hept-5-ene-2-sulfonamide], the “ERα agonist activity / intrinsic activity, in words” value (full-length human ERα [1]) was “low efficacy compound” and the “Agonist mode ERα Eff (%E2)” value (full-length human ERα [1]) was 11 ± 1 %E2.
With `CCN(c1ccc(OC)cc1)S(=O)(=O)C1CC2OC1C(c1ccc(O)cc1)=C2c1ccc(O)cc1` (stereo not shown) [Compound 11j, N-Ethyl-5,6-bis(4-hydroxyphenyl)-N-(4-methoxyphenyl)-7-oxabicyclo[2.2.1]hept-5-ene-2-sulfonamide] the “ERβ profile / intrinsic activity, in words” value (full-length human ERβ; HepG2 cells) was “as low as that for fulvestrant”, the “ERα agonist activity / intrinsic activity, in words” value (full-length human ERα [1]) was “as low as that for fulvestrant” and the “Agonist mode ERα Eff (%E2)” value (full-length human ERα [1]) was 3 ± 1 %E2.
With `CCN(c1ccccc1Cl)S(=O)(=O)C1CC2OC1C(c1ccc(O)cc1)=C2c1ccc(O)cc1` (stereo not shown) [Compound 11k, N-(2-Chlorophenyl)-N-ethyl-5,6-bis(4-hydroxyphenyl)-7-oxabicyclo[2.2.1]hept-5-ene-2-sulfonamide] the “Agonist mode ERα Eff (%E2)” value (full-length human ERα [1]) was 13 ± 1 %E2.
For `CCN(c1ccc(Cl)cc1)S(=O)(=O)C1CC2OC1C(c1ccc(O)cc1)=C2c1ccc(O)cc1` (stereo not shown) [Compound 11l, N-(4-Chlorophenyl)-N-ethyl-5,6-bis(4-hydroxyphenyl)-7-oxabicyclo[2.2.1]hept-5-ene-2-sulfonamide], the “Agonist mode ERα Eff (%E2)” value (full-length human ERα [1]) was 1 ± 1 %E2.
With `O=S(=O)(C1CC2OC1C(c1ccc(O)cc1)=C2c1ccc(O)cc1)N(CC(F)(F)F)c1ccc(Cl)cc1` (stereo not shown) [Compound 11o, N-(4-Chlorophenyl)-5,6-bis(4-hydroxyphenyl)-N-(2,2,2-trifluoroethyl)-7-oxabicyclo[2.2.1]hept-5-ene-2-sulfonamide] the “Agonist mode ERα Eff (%E2)” value (full-length human ERα [1]) was 3 ± 3 %E2.
In the case of `C[C@]12CC[C@@H]3c4ccc(O)cc4C[C@@H](CCCCCCCCC[S+]([O-])CCCC(F)(F)C(F)(F)F)[C@H]3[C@@H]1CC[C@@H]2O` (stereo partly shown) [Fulvestrant, fulvestrant, reference compound], the “ERα antagonist profile, in words” value (full-length human ERα [2]) is reported as “full antagonist”, the “ERβ profile / intrinsic activity, in words” value (full-length human ERβ; HepG2 cells) is reported as “full antagonist” and the “Agonist mode ERα Eff (%E2)” value (full-length human ERα [1]) is reported as 1 ± 1 %E2.
For `O=S(=O)(Oc1ccccc1)[C@H]1C[C@H]2O[C@@H]1C(c1ccc(O)cc1)=C2c1ccc(O)cc1` [OBHS, exo-5,6-bis-(4-hydroxyphenyl)-7-oxabicyclo[2.2.1]hept-5-ene-2-sulfonic acid phenyl ester], the “profile in HEC-1 cells, in words” value (HEC-1 cells) is listed as “full antagonist”.
